Results reported in patent publication US6737383B1, “Herbicidal oxadiazolidines” (priority 1999, dated 2004).

How the values were obtained:
corn = assay: Test B pre/postemergence corn; type: in vivo, Zea mays
Summary of the method: (§1)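 Herbicidal effect was estimated by eye on a ten-point control scale after plants spent twelve to sixteen days in a greenhouse following soil or foliar treatment. Foliar sprays targeted plants at one to four leaves; all doses were formulated in a non-phytotoxic solvent with surfactant.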

rape = assay: Test B pre/postemergence rape; type: in vivo, Brassica napus
Summary of the method: as §1

sugar beet = assay: Test B pre/postemergence sugar beet; type: in vivo, Beta vulgaris
Summary of the method: as §1

duck salad = assay: Test B flood test duck salad; type: in vivo, Heteranthera limosa; conditions: for Plant response rating, Ducksalad (0 to 10 scale, 0 is no effect, 10 is complete control) / Ducksalad plant response rating (0 to 10 scale, 0 is no effect, 10 is complete control): visual evaluation after twelve to sixteen days; for Ducksalad plant response rating (0 to 10 scale, 0 is no effect, 10 is complete control): under heading Pre-emergence
Summary of the method: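 Each value is a visual injury score relative to controls, with 10 meaning complete control and 0 no effect. Evaluation took place twelve to sixteen days after the 2-leaf-stage plants were treated and kept in the greenhouse.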

[1] = Postemergence, Rate 250 g/ha, scale 0 to 10
[2] = Postemergence, Rate 500 g/ha, scale of 0 to 10 where 0 is no effect and 10 is complete control
[3] = Preemergence, Rate 62 g/ha, scale of 0 to 10 where 0 is no effect and 10 is complete control
[4] = Preemergence, Rate 125 g/ha, scale of 0 to 10 where 0 is no effect and 10 is complete control
[5] = Preemergence, Rate 250 g/ha, scale 0 to 10, 0 is no effect, 10 is complete control
[6] = Preemergence, Rate 500 g/ha, scale 0 to 10, 0 is no effect, 10 is complete control
[7] = Rate 62 g/ha, Postemergence, scale 0 to 10, 0 no effect, 10 complete control
[8] = Rate 125 g/ha, Postemergence, scale 0 to 10, 0 is no effect, 10 is complete control
[9] = Rate 62 g/ha, flood test species, Pre-emergence
[10] = Rate 125 g/ha, flood test species
[11] = Rate 500 g/ha, Pre-emergence, flood test species, scale 0 to 10 (0 no effect, 10 complete control)
[12] = Postemergence, Rate 125 g/ha, scale of 0 to 10 where 0 is no effect and 10 is complete control
[13] = Preemergence, Rate 62 g/ha, scale 0 to 10 (0 no effect, 10 complete control)
[14] = Preemergence, Rate 125 g/ha, 0 is no effect, 10 is complete control
[15] = Preemergence, Rate 500 g/ha, scale 0 to 10 (0 no effect, 10 complete control)
[16] = Rate 62 g/ha, Postemergence, scale of 0 to 10 where 0 is no effect and 10 is complete control
[17] = Rate 250 g/ha, Postemergence, scale 0 to 10, 0 is no effect, 10 is complete control
[18] = Rate 500 g/ha, Postemergence, scale 0 to 10
[19] = Postemergence, Rate 62 g/ha, scale 0 to 10, 0 is no effect, 10 is complete control
[20] = Postemergence, Rate 250 g/ha, scale 0 to 10, 0 no effect, 10 complete control
[21] = Preemergence, Rate 62 g/ha, scale 0 to 10, 0 is no effect, 10 is complete control
[22] = Preemergence, Rate 125 g/ha, scale 0 to 10 (0 no effect, 10 complete control)
[23] = Preemergence, Rate 250 g/ha, scale of 0 to 10 where 0 is no effect and 10 is complete control
[24] = Preemergence, Rate 500 g/ha, scale 0 (no effect) to 10 (complete control)
[25] = Rate 125 g/ha, Postemergence, scale 0 to 10, 0 no effect, 10 complete control
[26] = Rate 500 g/ha, Postemergence, 0 to 10 scale (0 no effect, 10 complete control)
[27] = Postemergence, Rate 250 g/ha, scale 0 to 10, 0 is no effect, 10 is complete control

SMILES: CCC=CCn1c(=O)on(C(=O)N(c2ccccc2)C(C)C)c1=O [Compound 454]
- Corn plant response rating (corn; [1]): 0
- Corn plant response rating (corn; [2]): 0
- Plant response rating, Corn (corn; [3]): 0
- Plant response rating, Corn (corn; [4]): 0
- Corn plant response rating (corn; [5]): 0
- Corn plant response rating (corn; [6]): 3
- Corn plant response rating (corn; [7]): 0
- Corn plant response rating (corn; [8]): 0
- Rape plant response rating (rape; [1]): 0
- Plant response rating, Rape (rape; [3]): 0
- Plant response rating, Rape (rape; [4]): 0
- Rape plant response rating (rape; [5]): 0
- Rape plant response rating (rape; [6]): 0
- Rape plant response rating (rape; [7]): 0
- Rape plant response rating (rape; [8]): 0
- Sugarbeets plant response rating (sugar beet; [1]): 0
- Plant response rating, Sugarbeets (sugar beet; [3]): 0
- Plant response rating, Sugarbeets (sugar beet; [4]): 0
- Sugarbeets plant response rating (sugar beet; [5]): 0
- Sugarbeets plant response rating (sugar beet; [6]): 0
- Sugarbeets plant response rating (sugar beet; [7]): 0
- Sugarbeets plant response rating (sugar beet; [8]): 0
- Plant response rating, Ducksalad (0 to 10 scale, 0 is no effect, 10 is complete control) (duck salad; [9]): 0
- Ducksalad plant response rating (0 to 10 scale, 0 is no effect, 10 is complete control) (duck salad; [10]): 0
- Ducksalad plant response rating (duck salad; Rate 250 g/ha, Pre-emergence (flood test species), scale 0 to 10, 0 is no effect, 10 is complete control): 0
- Ducksalad plant response rating (duck salad; [11]): 0

SMILES: CC(C)N(C(=O)n1oc(=O)n(C(C)(C)C)c1=O)c1ccccc1 [Compound 129]
- Corn plant response rating (corn; [12]): 0
- Corn plant response rating (corn; [13]): 0
- Corn plant response rating (0 to 10 scale) (corn; [14]): 0
- Corn plant response rating (corn; [5]): 2
- Corn plant response rating (corn; [15]): 4
- Corn plant response rating (corn; [16]): 0
- Plant response rating, Corn (corn; [17]): 2
- Corn plant response rating (corn; [18]): 4
- Rape plant response rating (rape; [12]): 0
- Rape plant response rating (rape; [13]): 0
- Rape plant response rating (0 to 10 scale) (rape; [14]): 0
- Rape plant response rating (rape; [5]): 0
- Rape plant response rating (rape; [15]): 0
- Rape plant response rating (rape; [16]): 0
- Plant response rating, Rape (rape; [17]): 0
- Rape plant response rating (rape; [18]): 0
- Sugarbeets plant response rating (sugar beet; [12]): 0
- Sugarbeets plant response rating (sugar beet; [13]): 2
- Sugarbeets plant response rating (0 to 10 scale) (sugar beet; [14]): 3
- Sugarbeets plant response rating (sugar beet; [5]): 3
- Sugarbeets plant response rating (sugar beet; [15]): 5
- Sugarbeets plant response rating (sugar beet; [16]): 0
- Plant response rating, Sugarbeets (sugar beet; [17]): 0
- Sugarbeets plant response rating (sugar beet; [18]): 0
- Ducksalad plant response rating (duck salad; Rate 62 g/ha, headed Pre-emergence (flood test species), scale 0 to 10 (0 no effect, 10 complete control)): 5
- Ducksalad plant response rating (duck salad; Rate 125 g/ha, Pre-emergence, flood test species, scale 0 to 10 where 0 is no effect and 10 is complete control): 5
- Ducksalad plant response rating (duck salad; Rate 250 g/ha, headed Pre-emergence (flood test species), scale 0 to 10 (0 no effect, 10 complete control)): 5
- Plant response rating, Ducksalad (duck salad; Rate 500 g/ha, headed Pre-emergence (flood test species), scale 0 to 10 (0 no effect, 10 complete control)): 5

SMILES: CC(C)N(C(=O)n1oc(=O)n(-c2cc(Cl)ccc2Cl)c1=O)c1ccc(F)cc1 [Compound 16]
- Corn plant response rating (corn; [19]): 0
- Corn plant response rating (corn; [20]): 0
- Plant response rating, Corn (corn; [21]): 0
- Plant response rating, Corn (corn; [22]): 0
- Plant response rating, Corn (corn; [23]): 0
- Corn plant response rating (corn; [24]): 0
- Corn plant response rating (corn; [25]): 0
- Corn plant response rating (corn; [26]): 0
- Rape plant response rating (rape; [19]): 0
- Rape plant response rating (rape; [20]): 0
- Plant response rating, Rape (rape; [21]): 0
- Plant response rating, Rape (rape; [22]): 0
- Plant response rating, Rape (rape; [23]): 0
- Rape plant response rating (rape; [24]): 0
- Rape plant response rating (rape; [25]): 0
- Rape plant response rating (rape; [26]): 0
- Sugarbeets plant response rating (sugar beet; [19]): 0
- Sugarbeets plant response rating (sugar beet; [20]): 0
- Plant response rating, Sugarbeets (sugar beet; [21]): 0
- Plant response rating, Sugarbeets (sugar beet; [22]): 0
- Plant response rating, Sugarbeets (sugar beet; [23]): 0
- Sugarbeets plant response rating (sugar beet; [24]): 0
- Sugarbeets plant response rating (sugar beet; [25]): 0
- Ducksalad plant response rating (duck salad; [19]): 0
- Ducksalad plant response rating (duck salad; Rate 125 g/ha, Postemergence section (flood test species), scale 0 to 10, 0 no effect, 10 complete control): 0
- Ducksalad plant response rating (duck salad; Rate 500 g/ha, Postemergence section of Table B, 0 to 10 scale (0 no effect, 10 complete control)): 0
- Ducksalad plant response rating (duck salad; flood test, listed under Postemergence, Rate 250 g/ha, scale 0 to 10, 0 no effect, 10 complete control): 0

SMILES: Cc1nc(Cl)sc1C(C)n1c(=O)on(C(=O)N(c2ccccc2)C(C)C)c1=O (centres unmarked) [Compound 407]
- Plant response rating, Corn (corn; Postemergence, Rate 125 g/ha, scale 0 to 10, 0 is no effect, 10 is complete control): 0
- Plant response rating, Corn (corn; [27]): 0
- Corn plant response rating (corn; [2]): 0
- Plant response rating, Corn (corn; [13]): 0
- Plant response rating, Corn (corn; [4]): 0
- Corn plant response rating (corn; [5]): 0
- Corn plant response rating (corn; [6]): 0
- Corn plant response rating (corn; [16]): 0
- Plant response rating, Rape (rape; [27]): 0
- Plant response rating, Rape (rape; [13]): 0
- Plant response rating, Rape (rape; [4]): 0
- Rape plant response rating (rape; [5]): 0
- Rape plant response rating (rape; [6]): 0
- Plant response rating, Sugarbeets (sugar beet; [27]): 0
- Sugarbeets plant response rating (sugar beet; [2]): 0
- Plant response rating, Sugarbeets (sugar beet; [13]): 0
- Plant response rating, Sugarbeets (sugar beet; [4]): 0
- Sugarbeets plant response rating (sugar beet; [5]): 0
- Sugarbeets plant response rating (sugar beet; [6]): 0
- Plant response rating, Ducksalad (0 to 10 scale, 0 is no effect, 10 is complete control) (duck salad; [9]): 0
- Ducksalad plant response rating (0 to 10 scale, 0 is no effect, 10 is complete control) (duck salad; [10]): 0
- Ducksalad plant response rating (duck salad; Rate 250 g/ha, Pre-emergence, flood-test species, scale 0 to 10, 0 is no effect, 10 is complete control): 0
- Ducksalad plant response rating (duck salad; [11]): 0
